According to ChEMBL document CHEMBL1201862, “PubChem BioAssay data set” (2004):
Activity calls are given as the source filed them.

Tests used:
[1] = intracellular Trypanosoma cruzi inhibitors in host cells – cell-based, plate reader, cherry-pick samples, set 3, dose response (AID 651818); assay type: functional;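 note: compounds incubated with infected cells for about four days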
[2] = biological target: T1, Adenosylmethionine-8-amino-7-oxononanoate aminotransferase (Mycobacterium tuberculosis, UniProt P9WQ81); assay: Mycobacterium tuberculosis BioA enzyme inhibitor Measured in Biochemical System Using Plate Reader - 2163-02_Inhibitor_Dose_CherryPick_Activity.; assay type: functional, Mycobacterium tuberculosis UT205
T1 sequence (P9WQ81 whole entry): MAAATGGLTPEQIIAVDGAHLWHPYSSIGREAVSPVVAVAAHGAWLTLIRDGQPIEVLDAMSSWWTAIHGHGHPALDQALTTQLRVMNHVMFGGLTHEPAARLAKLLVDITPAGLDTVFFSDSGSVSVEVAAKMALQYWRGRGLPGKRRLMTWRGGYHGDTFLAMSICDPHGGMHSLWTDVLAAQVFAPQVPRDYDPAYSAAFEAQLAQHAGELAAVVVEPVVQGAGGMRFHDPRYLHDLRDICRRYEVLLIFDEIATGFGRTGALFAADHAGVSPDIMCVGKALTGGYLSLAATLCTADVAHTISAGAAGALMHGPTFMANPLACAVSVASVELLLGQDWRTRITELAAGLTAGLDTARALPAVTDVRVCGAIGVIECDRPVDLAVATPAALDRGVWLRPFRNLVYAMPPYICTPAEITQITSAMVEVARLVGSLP

[3] = inhibitors of HIV Env-driven cell fusion, dose response, cherry-pick (AID 652057); assay type: functional, cell-based
[4] = ZM109 Env clade C HIV-1 fusion inhibitors, dose response, HeLa effector, CEM target cells, luciferase, cherry-pick (AID 652058); assay type: functional, cell-based
[5] = off-target signal loss in HeLa-CEM21 co-culture – HeLa F-luc CTL cells, cherry-picked, counter-screen for HIV-1 Env fusion inhibitor project, dose response (AID 652040); assay type: functional, cell-based;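 note: potency for signal decrease marking cytotoxic or nonspecific inhibition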
[6] = inhibitors of clade B AD8 Env fusion, dose response, cell-based, cherry-pick (AID 652062); assay type: functional;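 note: luciferase signal from cell-cell fusion driven by HIV-1 clade B AD8 Env; potency is for inhibitors of fusion seen as a drop in luminescence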
[7] = biological target: Voltage-dependent T-type calcium channel subunit alpha-1H (Homo sapiens, UniProt O95180); assay type: functional;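 note: channel activity triggered by adding a high calcium stimulation buffer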
[8] = LGR2 antagonists, dose response, cell-based, HEK293, CRE-luciferase reporter, cherry pick, set 2 (AID 743343); assay type: functional;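 note: transfected cells were stimulated with diluted bursicon conditioned medium after compound addition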
[9] = MC4R antagonists, dose response, counter-screen for LGR2 antagonist project, cell-based, plate reader, cherry pick (AID 743444); assay type: functional;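 note: transfected HEK 293 cells stimulated with alpha-MSH peptide; potency of inhibitors of the alpha-MSH evoked signal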
[10] = HEK293 cell cytotoxicity, dose response, cytotoxicity control, plate reader, cherry-picked samples (AID 743446); assay type: functional, cell-based
[11] = biological target: T2, Ubiquitin-conjugating enzyme E2 N (Homo sapiens, UniProt P61088); assay type: functional;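 note: Dose-response confirmation in a TR-FRET assay detecting UBC13-driven polyubiquitin chain formation, inhibition measured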
T2 sequence (P61088 whole entry): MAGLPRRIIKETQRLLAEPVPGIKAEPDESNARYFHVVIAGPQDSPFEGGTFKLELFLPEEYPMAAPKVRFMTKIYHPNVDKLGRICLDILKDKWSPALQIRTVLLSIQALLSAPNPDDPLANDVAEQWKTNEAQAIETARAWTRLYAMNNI

[12] = biological target: T3, Replicative DNA helicase DnaB (Mycobacterium tuberculosis, UniProt P9WMR3); assay: DnaB intein splicing inhibitors, dose response, biochemical, cell-free fluorescence (AID 449749); assay type: functional
T3 sequence (P9WMR3 whole entry): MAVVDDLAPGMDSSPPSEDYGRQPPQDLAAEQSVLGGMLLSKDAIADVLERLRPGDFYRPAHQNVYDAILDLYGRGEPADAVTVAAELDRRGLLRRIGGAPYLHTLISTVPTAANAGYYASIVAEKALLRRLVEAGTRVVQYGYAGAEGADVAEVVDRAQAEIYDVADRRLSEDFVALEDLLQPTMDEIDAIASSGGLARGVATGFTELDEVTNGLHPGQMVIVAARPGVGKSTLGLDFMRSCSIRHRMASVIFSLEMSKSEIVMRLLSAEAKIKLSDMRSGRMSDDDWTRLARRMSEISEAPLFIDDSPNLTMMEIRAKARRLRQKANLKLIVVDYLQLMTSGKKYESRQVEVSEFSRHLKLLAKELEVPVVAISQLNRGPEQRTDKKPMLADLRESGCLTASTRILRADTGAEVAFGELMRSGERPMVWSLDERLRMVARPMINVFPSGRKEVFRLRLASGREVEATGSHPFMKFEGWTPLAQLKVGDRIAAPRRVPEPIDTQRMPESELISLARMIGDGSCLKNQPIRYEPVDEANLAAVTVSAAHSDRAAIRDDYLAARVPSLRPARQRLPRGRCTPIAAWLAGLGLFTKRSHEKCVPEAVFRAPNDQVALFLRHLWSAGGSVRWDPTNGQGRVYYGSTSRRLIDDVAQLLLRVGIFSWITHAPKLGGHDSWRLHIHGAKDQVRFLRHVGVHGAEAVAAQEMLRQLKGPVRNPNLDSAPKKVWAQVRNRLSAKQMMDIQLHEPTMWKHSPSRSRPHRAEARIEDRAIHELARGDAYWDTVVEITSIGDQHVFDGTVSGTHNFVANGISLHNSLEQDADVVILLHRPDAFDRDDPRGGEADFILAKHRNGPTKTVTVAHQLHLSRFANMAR

Protein RecA = biological target: T4, Protein RecA (Mycobacterium tuberculosis, UniProt P9WHJ3); assay: Fluorescence Cell-Free Homogeneous Dose Retest to Identify Inhibitors of RecA-Intein Splicing Activity. [Related pubchem assays (depositor defined):AID2097, AID2223, AID489010, AID492950]; assay type: functional
T4 sequence (P9WHJ3 whole entry): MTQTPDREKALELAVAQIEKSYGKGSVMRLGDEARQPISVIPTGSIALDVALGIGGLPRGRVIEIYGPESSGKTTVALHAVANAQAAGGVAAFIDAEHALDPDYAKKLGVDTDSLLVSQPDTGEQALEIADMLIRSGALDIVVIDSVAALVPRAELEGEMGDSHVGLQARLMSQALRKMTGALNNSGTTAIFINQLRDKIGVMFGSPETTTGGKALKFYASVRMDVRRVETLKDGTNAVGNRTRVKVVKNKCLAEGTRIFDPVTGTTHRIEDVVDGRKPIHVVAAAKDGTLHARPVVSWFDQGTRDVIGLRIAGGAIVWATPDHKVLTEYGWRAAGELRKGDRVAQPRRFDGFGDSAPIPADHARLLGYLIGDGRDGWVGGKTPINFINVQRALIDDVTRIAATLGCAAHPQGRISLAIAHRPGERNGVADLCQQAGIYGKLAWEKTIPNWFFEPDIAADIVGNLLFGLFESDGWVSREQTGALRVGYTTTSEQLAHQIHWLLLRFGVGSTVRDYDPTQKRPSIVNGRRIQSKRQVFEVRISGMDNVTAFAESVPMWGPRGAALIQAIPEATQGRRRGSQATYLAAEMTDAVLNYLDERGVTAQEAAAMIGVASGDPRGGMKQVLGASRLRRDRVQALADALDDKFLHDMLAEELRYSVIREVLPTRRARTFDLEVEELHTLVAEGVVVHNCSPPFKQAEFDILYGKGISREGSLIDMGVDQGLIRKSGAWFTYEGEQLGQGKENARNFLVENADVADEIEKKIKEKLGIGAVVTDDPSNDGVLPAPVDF

Genome polyprotein = Genome polyprotein (dengue virus type 2, UniProt P29990); assay: Dengue-2 NS5 methyltransferase inhibitors, primary screen, biochemical, confirmation dose response (AID 588689); assay type: functional
[13] = NIH-3T3 fibroblast cytotoxicity, dose response, cytotoxicity control, cell-based, fluorescence, Alamar Blue, secondary assay (AID 2327); assay type: functional;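 note: NIH-3T3 mouse fibroblasts cultured with fluconazole at 8 µg/mL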
[14] = C. albicans growth with fluconazole, confirmation, fluorescence, retest (AID 2467); assay type: functional, cell-based

Chain of Voltage-dependent T-type calcium channel subunit alpha-1H (O95180 whole entry): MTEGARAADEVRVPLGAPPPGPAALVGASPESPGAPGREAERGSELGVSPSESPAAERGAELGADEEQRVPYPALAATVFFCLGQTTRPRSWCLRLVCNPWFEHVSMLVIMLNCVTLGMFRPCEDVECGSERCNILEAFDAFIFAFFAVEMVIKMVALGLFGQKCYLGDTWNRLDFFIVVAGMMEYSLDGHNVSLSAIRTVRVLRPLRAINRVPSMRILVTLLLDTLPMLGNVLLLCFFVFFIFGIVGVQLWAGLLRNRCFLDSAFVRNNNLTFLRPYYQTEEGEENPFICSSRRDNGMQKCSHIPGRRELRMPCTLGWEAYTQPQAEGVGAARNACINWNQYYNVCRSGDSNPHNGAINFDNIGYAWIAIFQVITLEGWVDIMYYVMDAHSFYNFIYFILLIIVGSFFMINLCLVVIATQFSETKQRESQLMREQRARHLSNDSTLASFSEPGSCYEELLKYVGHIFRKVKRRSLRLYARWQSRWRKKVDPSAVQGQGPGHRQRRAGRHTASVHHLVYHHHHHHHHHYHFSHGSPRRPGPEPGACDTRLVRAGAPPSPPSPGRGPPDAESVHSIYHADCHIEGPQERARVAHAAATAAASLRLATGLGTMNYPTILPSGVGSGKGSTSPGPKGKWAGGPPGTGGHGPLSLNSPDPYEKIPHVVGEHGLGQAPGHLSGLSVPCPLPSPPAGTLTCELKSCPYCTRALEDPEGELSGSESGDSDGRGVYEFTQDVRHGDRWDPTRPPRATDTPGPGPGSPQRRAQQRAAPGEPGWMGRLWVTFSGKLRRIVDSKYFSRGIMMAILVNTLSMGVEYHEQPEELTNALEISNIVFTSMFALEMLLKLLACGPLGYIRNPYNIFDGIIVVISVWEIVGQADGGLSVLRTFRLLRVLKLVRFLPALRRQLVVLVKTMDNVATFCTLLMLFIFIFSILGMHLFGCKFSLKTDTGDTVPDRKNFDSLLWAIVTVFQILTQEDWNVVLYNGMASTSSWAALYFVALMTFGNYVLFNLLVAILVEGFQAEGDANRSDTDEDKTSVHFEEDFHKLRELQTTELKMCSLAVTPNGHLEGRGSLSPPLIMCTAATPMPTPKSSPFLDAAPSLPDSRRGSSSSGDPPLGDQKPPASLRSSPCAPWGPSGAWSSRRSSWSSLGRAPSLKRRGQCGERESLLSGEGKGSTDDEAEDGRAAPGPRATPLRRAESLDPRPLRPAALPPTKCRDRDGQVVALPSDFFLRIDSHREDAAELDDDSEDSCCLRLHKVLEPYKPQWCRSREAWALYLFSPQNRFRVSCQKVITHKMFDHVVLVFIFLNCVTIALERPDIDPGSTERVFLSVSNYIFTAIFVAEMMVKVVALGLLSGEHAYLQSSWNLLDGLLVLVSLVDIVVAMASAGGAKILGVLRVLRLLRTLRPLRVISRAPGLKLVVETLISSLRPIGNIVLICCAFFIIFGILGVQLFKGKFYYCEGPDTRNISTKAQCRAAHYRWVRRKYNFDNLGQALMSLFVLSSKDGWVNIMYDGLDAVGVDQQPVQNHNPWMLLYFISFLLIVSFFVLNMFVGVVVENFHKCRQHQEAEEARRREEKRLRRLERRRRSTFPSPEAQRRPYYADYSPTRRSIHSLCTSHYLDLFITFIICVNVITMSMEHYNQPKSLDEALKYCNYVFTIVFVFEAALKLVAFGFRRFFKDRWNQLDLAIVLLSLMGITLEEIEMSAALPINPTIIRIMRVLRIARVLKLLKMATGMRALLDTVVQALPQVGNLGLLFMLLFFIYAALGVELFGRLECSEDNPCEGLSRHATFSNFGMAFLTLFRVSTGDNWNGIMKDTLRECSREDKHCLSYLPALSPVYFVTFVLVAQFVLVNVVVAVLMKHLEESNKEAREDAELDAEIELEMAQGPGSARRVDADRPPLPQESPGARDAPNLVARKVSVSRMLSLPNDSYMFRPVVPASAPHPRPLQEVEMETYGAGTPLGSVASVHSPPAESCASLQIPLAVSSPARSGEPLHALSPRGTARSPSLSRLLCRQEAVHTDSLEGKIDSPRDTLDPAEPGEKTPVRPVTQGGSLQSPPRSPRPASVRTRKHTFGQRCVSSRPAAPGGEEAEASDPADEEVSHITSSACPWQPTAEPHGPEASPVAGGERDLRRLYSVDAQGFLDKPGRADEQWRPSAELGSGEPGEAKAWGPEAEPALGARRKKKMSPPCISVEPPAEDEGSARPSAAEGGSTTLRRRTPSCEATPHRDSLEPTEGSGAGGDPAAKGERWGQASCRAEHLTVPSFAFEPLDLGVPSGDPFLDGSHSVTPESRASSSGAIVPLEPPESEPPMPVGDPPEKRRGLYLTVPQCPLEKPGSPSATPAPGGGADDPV
Chain of Genome polyprotein (P29990 2492-3391 limits assumed): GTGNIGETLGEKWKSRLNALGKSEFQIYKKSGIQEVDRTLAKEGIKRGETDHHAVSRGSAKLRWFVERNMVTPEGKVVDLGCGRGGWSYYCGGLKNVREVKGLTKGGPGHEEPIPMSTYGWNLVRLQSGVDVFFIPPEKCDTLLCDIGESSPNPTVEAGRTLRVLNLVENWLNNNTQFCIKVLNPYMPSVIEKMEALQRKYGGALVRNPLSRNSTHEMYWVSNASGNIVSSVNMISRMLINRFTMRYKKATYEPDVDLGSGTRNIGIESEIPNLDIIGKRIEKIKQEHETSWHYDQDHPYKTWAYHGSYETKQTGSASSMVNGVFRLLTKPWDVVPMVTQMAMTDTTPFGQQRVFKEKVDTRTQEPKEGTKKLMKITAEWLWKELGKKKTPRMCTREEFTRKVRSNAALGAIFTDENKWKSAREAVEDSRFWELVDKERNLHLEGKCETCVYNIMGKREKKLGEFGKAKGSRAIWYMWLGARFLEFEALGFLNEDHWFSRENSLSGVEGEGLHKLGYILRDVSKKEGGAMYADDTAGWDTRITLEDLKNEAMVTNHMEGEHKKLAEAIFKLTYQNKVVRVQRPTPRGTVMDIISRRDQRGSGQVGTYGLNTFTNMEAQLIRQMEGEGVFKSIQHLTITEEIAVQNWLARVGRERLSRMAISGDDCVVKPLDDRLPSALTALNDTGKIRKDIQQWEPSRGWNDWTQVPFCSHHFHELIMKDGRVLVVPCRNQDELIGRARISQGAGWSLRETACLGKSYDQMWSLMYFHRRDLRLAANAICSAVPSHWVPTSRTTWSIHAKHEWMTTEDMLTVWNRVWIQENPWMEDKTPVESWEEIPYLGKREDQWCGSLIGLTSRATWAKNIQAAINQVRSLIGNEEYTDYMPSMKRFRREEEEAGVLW

## C[C@H](CO)N1C[C@H](C)[C@H](CN(C)Cc2ccc(Cl)c(Cl)c2)Oc2c(NC(=O)c3nc4ccccc4s3)cccc2C1=O
[1]
  AC50: 6.38 µM (active)

## CC(=O)CSc1nnc(CSc2ncccn2)n1C1CCCCC1
[2]
  AC50: 13.9 µM (active)

## C[C@@H]1CN([C@@H](C)CO)C(=O)c2cccc(NS(=O)(=O)c3ccc(Cl)cc3)c2O[C@@H]1CN(C)Cc1ccc(Oc2ccccc2)cc1
[1]
  AC50: 4.87 µM (active)

## C[C@@H]1CN([C@H](C)CO)C(=O)c2cc(NC(=O)Nc3ccc4c(c3)OCO4)ccc2O[C@@H]1CN(C)Cc1ccc(-c2ccccc2)cc1
[1]
  AC50: 2.72 µM (active)

## CC(C)OP(=O)(Nc1cccc2ccccc12)OC(C)C
[3]
  AC50: 4.78 µM (active)
[4]
  AC50: 5.55 µM (active)
[5]
  AC50: 5.98 µM (active)
[6]
  AC50: 7.86 µM (active)

## COc1ccccc1N1CCN(CC(O)COc2cccc3ccccc23)CC1 (stereo unspecified) [NAFTOPIDIL]
[7]
  EC50: 3.72 µM (active)

## Clc1ccc(OCc2nc(-c3ccccn3)no2)c(Br)c1
[8]
  AC50: 6.73 µM (active)
[9]
  AC50: 10.6 µM (active)
[10]
  AC50: 27.6 µM (active)

## O=C(CSc1nnc(-c2ccncc2)n1-c1ccc(Cl)cc1)NCc1cccs1
[2]
  AC50: 9.86 µM (active)

## CCC(C)(C)NC(=O)CN(C(=O)c1snc(C(N)=O)c1N)c1ccc2c(c1)OCCO2
[11]
  IC50: > 20 µM (inactive)

## CON(C)c1nc(OCCNC(=O)OCc2ccc(Cl)cc2C)nc(N(C)C)n1
[3]
  AC50: 1.29 µM (active)
[4]
  AC50: 2.22 µM (active)
[5]
  AC50: 2.32 µM (active)
[6]
  AC50: 0.357 µM (active)

## COc1ccc(OC)c(N2C(=O)C(Cl)=C(N3CCOCC3)C2=O)c1
[12]
  AC50: 145 µM (active)
Protein RecA
  EC50: 26.3 µM (active)
Genome polyprotein
  IC50: 18.1 µM (active)

## C[C@H]1CN([C@@H](C)CO)C(=O)c2cccc(NC(=O)Nc3ccccc3)c2O[C@H]1CN(C)C(=O)Nc1ccc2c(c1)OCO2
[1]
  AC50: 20 µM (inactive)

## COc1ccc(-c2nc3cnccn3c2Nc2ccc3c(c2)OCO3)cc1
[2]
  AC50: 0.702 µM (active)

## O=C(C[n+]1cc(-c2ccc(Cl)cc2)n2c1CCC2)N1c2ccccc2Sc2ccccc21
[13]
  EC50: > 160 µM (inconclusive)
[14]
  EC50: > 38 µM (not active)
[2]
  AC50: 6.34 µM (active)
